Values after ≈ are worked out from the molar mass of the structure shown.
What was measured:
Assay type in all cases: cell-based
Pythium ultimum [1] = assay: Amended agar assay (PDA), colony growth; conditions: Globisporangium ultimum; 20 ppm in amended PDA, 18° C., reduction in colony growth vs control plate
Experimental: (§1) Testing was carried out on potato dextrose agar (PDA) amended with each compound at a test concentration of 20 ppm. Amended agar was poured into three replicate 9 cm petri dishes. Each replicate dish was inoculated in the centre with a 5 mm agar plug taken from the leading edge of a culture aged between 2 and 7 days old; the age of the culture was dependant on the growth rate of the pathogen being tested. The test pathogens were Pythium ultimum and Phytophthora cinnamomi. Plates were incubated at 18° C. and the diameter of each colony measured before growth on the fastest growing plate reached the plate edge. This varied between 2 and 7 days depending on the growth rate of test pathogens. The % reduction in colony growth compared to the control plate was calculated for each pathogen. The results are provided in Table 1, in which D represents no control detected at this concentration; C represents up to 50% control; B from 50 to 99% control; and A represents a control of greater than 99%, i.e. no detectable colony growth.
(§2) Alternatively, or in addition, the same assay was conducted at descending test concentrations with 5-fold dilutions typically down to 0.032 ppm though sometimes as low as 0.00026 ppm, and an EC50 (the concentration at which 50% control would be achieved) was determined. The results are provided in Table 1 in which G represents an EC50 above 20 ppm, F represents an EC50 of 1-20 ppm and E represents and EC50 less than 1 ppm.

oomycete plant pathogens = assay: Fungicidal activity testing, overall summary; conditions: summary statement on Table 1
Experimental: The activity of compounds of the invention was assessed by testing against certain oomycete plant pathogens and representative data are presented in Table 1.

Pythium ultimum [2] = assay: Amended agar assay (PDA), colony growth; conditions: Globisporangium ultimum; read-out: % control Pythium ultimum 2 ppm
Phytophthora cactorum = assay: 96 well plate test (amended agar with spores); conditions: 96 well plate, 20, 2, 0.2 and 0.02 ppm, 1% PDA, 2 to 3 days (cells marked *), read-out: EC50 Phytophthora spp. (*96 well plate format vs. Phytophthora cactorum)
Experimental: Compounds were screened in 96 well plates with 10 compounds per plate. Each compound was screened using agar amended to 20, 2, 0.2 and 0.02 ppm, with Proline at 50 and 10 ppm and 0.2% DMSO used as controls. Each test concentration and standard was replicated twice on a plate. Compounds were screened against Phytophthora cactorum. The agar used in the test is a 1% PDA. 1000 spores/mL agar were added to the appropriate agar.
A ×10 stock solution in 2% DMSO was produced for each dose i.e. 200, 20, 2 and 0.2 ppm, and 10 μl of this added to the appropriate wells on the plate. An equivalent amount of 2% DMSO and Proline stock at 500 and 100 ppm were added for the controls. To each well 90 μl of the appropriate agar spore suspension was added to give the required final well concentrations. Plates were incubated at room temperature (18° C.) and assessed after 2 to 3 days. The amount of pathogen growth in each well was compared to the DMSO controls and an EC50 concentration was calculated. The results are provided in Table 1 in which G represents an EC50 above 20 ppm, F represents an EC50 of 1-20 ppm and E represents an EC50 less than 1 ppm.

Phytophthora cinnamomi = assay: Amended agar assay (PDA), colony growth; conditions: Phytophthora cinnamomi; 20 ppm in amended PDA, 18° C., reduction in colony growth vs control plate; read-out: % control Phytophthora spp. 20 ppm
Experimental: as §1, §2

Row | Structure (SMILES) | inhibition of growth at 20 ppm (Pythium ultimum [1]) | control over the pathogens tested (oomycete plant pathogens) | inhibition of growth at 2 ppm (Pythium ultimum [2]) | EC50 (Phytophthora cactorum) | inhibition of growth at 20 ppm (Phytophthora cinnamomi)
1 | Cc1ccnc(CSc2nc3ccccc3n2-c2nnnn2C)c1 [Example 37] | > 99% | good to excellent control | 50 to 99% | 1 to 20 µg/mL (≈ 2.96 to 59.3 µM) | 
2 | Clc1cncnc1-n1c(SCc2ccccn2)nc2ccccc21 [Example 59, 1-(5-Chloropyrimidin-4-yl)-2-((pyridin-2-ylmethyl)thio)-1H-benzo[d]imidazole] | > 99% | good to excellent control | > 99% | 1 to 20 µg/mL (≈ 2.83 to 56.5 µM) | > 99%
3 | Cn1nnnc1-n1c(SCc2nccs2)nc2ccccc21 [Example 34] | > 99% | good to excellent control | 50 to 99% | 1 to 20 µg/mL (≈ 3.04 to 60.7 µM) | 
4 | COc1ccnc(CSc2nc3cc(Cl)ccc3n2-c2nnnn2C)c1 [Example 66] |  | good to excellent control | > 99% | 1 to 20 µg/mL (≈ 2.58 to 51.6 µM) | 
5 | Cn1nnnc1-n1c(SCc2cccc(NC(=O)OC(C)(C)C)n2)nc2cccc(Cl)c21 [Example 83] |  | good to excellent control | 50 to 99% | 1 to 20 µg/mL (≈ 2.11 to 42.3 µM) | 
6 | Cn1nnnc1-n1c(SCc2cccc(NC(=O)COc3ccccc3)n2)nc2ccc(F)cc21 [Example 47] |  | good to excellent control | > 99% | < 1 µg/mL | 
7 | COc1cc(F)cc2c1nc(SCc1cccc(NC(=O)OC(C)(C)C)n1)n2-c1nnnn1C [Example 84] |  | good to excellent control | > 99% | 1 to 20 µg/mL (≈ 2.06 to 41.1 µM) | 
8 | COCCCOc1ccnc(CSc2nc3ccccc3n2-c2nnnn2C)c1C [Example 40] |  | good to excellent control | 50 to 99% | 1 to 20 µg/mL (≈ 2.35 to 47 µM) | 

From patent US11224224B2, “Thiobenzoimidazole as fungicides” (REDAG CROP PROTECTION LTD, priority 2017, dated 2022)
